Where “and” joins values, the source holds several entries; their conditions need not be identical. Equal values may be shown once.
What was measured:
[1] = tested on: erythrocytes in heparinized bovine blood; experiment: In-vitro hemolysis of erythrocytes in heparinized whole blood, absorbance at 413 nm; conditions: 1 hour at 37° C.
Procedure: The effect of the compounds on the in-vitro hemolysis of erythrocytes in heparinized whole blood is monitored by a spectrophotometric method.
Various formulations and concentrations of the test compound are added to heparinized bovine blood and mixed gently in a 1.5 ml microcentrifuge tube. The sample is allowed to incubate for 1 hour at 37° C. At the end of incubation, the samples are removed from the incubator and centrifuged at 2000 rpm for 5 minutes. A 200 μl aliquot of the supernatant is removed from each sample into a 96 well microtiter plate and read at 413 nm. The absorbance of the test sample is compared to the control sample containing phosphate buffered saline, pH 7.2.

HIV-1 virus = experiment: Infectivity of HIV-1 treated 10 minutes with product for normal human T lymphocytes (reverse transcriptase activity, ATI, in culture supernatants); type: cell-based
Description: Infectivity is studied on T lymphocytes obtained from peripheral blood of a healthy human donor and separated on a Ficoll gradient.
The lymphocytes are stimulated for 3 days by phytohaemaglutinin P (PHA P) diluted to 1/500 and cultivated in a complete medium. The blastic cells T are infected by the virus, treated or not, in order to show up residual infectious strength.
The viruses obtained from a supernatant culture of an HIV-1 infected CEM line. This T lymphoblastoid line infected by HIV-1 is used for viral production.
The titer of the supernatant substances used is evaluated after quantitative analysis of the reverse transcriptase activity (ATI) of the virus.
In the following tests, a supernatant substance was used, the ATI of which was 1.8×10^6 cpm/ml.
Preparation of the viral solution: several tubes containing 1 ml viral supernatant, ATI 1.8×10^6 cmp/ml are, concentrated by ultracentrifugation. The resulting virus residues are taken up either by each of the different dilutions of QACs produced in sterile bidistilled water or by water (untreated control virus).
Treatment of viral preparations: the concentrated viral preparations are all treated according to the following procedure:
Treated virus samples: the virus residues concentrated by ultracentrifugation are resuspended in 100, μl of each of the concentrations in terms of products (QACs) studied and incubated for 10 minutes.
Control viral sample: untreated control virus: the product is replaced by 100 μl of sterile bidistilled water.
Following this 10 minute incubation time, the virus present in each sample is rinsed and then reconcentrated by addition of 12 ml of RPMI 1640 medium and ultracentrifugation. The virus residues are then taken up in 1 ml of complete medium and used for infecting normal human T lymphocytes.
Measurement of the infectivity of the samples: 4×10^6 normal human T lymphocytes are infected with each of the treated viral preparations or controls mentioned hereinabove. Infection of the T cells is carried out according to a previously described method (F. Barre Sinoussi et al. Science, 1983, 220:868-871): to sum up, 4×10^6 cells in suspension in 1 ml of complete medium are incubated with 1 ml of each of the treated vial preparations or controls for 1 hour at 37° C.
After two washings using several millilitres of culture medium, the cellular suspensions are adjusted to the concentration of 1×10^6 cells per ml. The day of the infection is regarded as day 0.
Viral production during the course of time is determined by measuring the reverse transcriptase activity present in the culture supernatants using the procedure described below.
This quantitative analysis makes it possible to evaluate the presence of noninactivated residual virus in the staring sample. It is carried out on a basis of 1 ml of culture supernatant taken every 2 or 3 days and ultracentrifuged.
The enzymatic activities are measured in 50 μl of a reaction mixture containing 50 mM Tris pH 7.8, 20 mM MgCl2, 20 mM KCl, 2 mM dithiotreitol, 0.25 OD/ml, oligo dT, 0.25 OD/ml poly rA, 0.1% Triton×100 and 2.5 μCi 3H DTTP.
After incubation for 1 hour at 37° C., the reaction is stopped by the addition of 10 μl of 0.2 M EDTA and the samples are deposited on DE81 membranes.
After several washings using 5% Na2HPO4, then by distilled water, the membranes are dried and the radioactivity measured by means of a p scintillation counter (PACKARD).

[2] = tested on: Candida albicans ATCC 1031; experiment: Test 2 (DGHM), growth inhibition by dilutions, 72 hours at 37° C.; type: cell-based
Procedure: Another test was carried out a basis of the following solutions • 100 ml of a 0.1% solution of chlorohexidine digluconate (pH 6); and • 100 ml of a 0.1% solution of Bardac22®.
The activity of these solutions, alone or in combination, was more particularly tested in respect of Staphylococcus aureus ATCC 6538, Escherichia coli ATCC 11229 and Candida albicans ATCC 10231.
The tests were conducted in accordance with the procedure described in Chapter I/2.1 and 2.2 of Tichtlinien für die Prüfung und Bewertung chemischer Desinfektionsverfahren der DGHM/Guidelines for Testing and Evaluating Chemical Disinfection Processes of DGHM as at 1.1, 1981.
Tables IX, X and XI respectively illustrate the bactericidal and fungicidal activity of a 0.1% aqueous solution of chlorohexidine digluconate, a 0.1% aqueous solution of Bardac22® and a mixture of equal parts of both compounds. The procedures of which these Tables illustrate the results comprise incubation of 72 hours at 37° C. and the use of the following inactivating substances as controls: • A: 3% Tween®80+0.3% lecithin+0.1% cysteine • B: 3% Tween®80+3% saponin+0.1% cysteine+0.1% histidine; • C: 3% Tween®80+0.3% lecithin+0.1% histidine+0.5% sodium thiosulphate.
In these Tables, the sign “+” indicates an increase and the sign “−” denotes the absence of growth.

[3] = 0.00625% vol/vol, inactivator A
[4] = 0.00625% vol/vol, inactivator B
[5] = 0.00625% vol/vol, inactivator C
[6] = 0.00625% vol/vol, no inactivator
[7] = 0.0125% vol/vol, no inactivator

SMILES: CCCCCCCCCC[N+](C)(C)CCCCCCCCCC.[Cl-] [Bardac ®, didecyl dimethyl ammonium chloride]
- Concentration at which hemolysis is not observed [1]: 0.001% and 0.0125% and 0.0005%
- ATI in supernatant (HIV-1 virus; Bardac 0.0004%, J3): 702 cpm/ml
- ATI in supernatant (HIV-1 virus; Bardac 0.0004%, J6): 18136 cpm/ml
- ATI in supernatant (HIV-1 virus; Bardac 0.0004%, J10): 117326 cpm/ml
- ATI in supernatant (HIV-1 virus; Bardac 0.0004%, J13): 74214 cpm/ml
- ATI in supernatant (HIV-1 virus; Bardac 0.0004%, J17): 50674 cpm/ml
- ATI in supernatant (HIV-1 virus; Bardac 0.0004%, J20): 22478 cpm/ml
- ATI in supernatant (HIV-1 virus; Bardac 0.0004%, J23): 13806 cpm/ml
- ATI in supernatant (HIV-1 virus; Bardac 0.0004%, J27): 7800 cpm/ml
- ATI in supernatant (HIV-1 virus; Bardac 0.0004%, J30): 4426 cpm/ml
- ATI in supernatant (HIV-1 virus; Bardac 0.002%, J3): 464 cpm/ml
- ATI in supernatant (HIV-1 virus; Bardac 0.002%, J6): 2472 cpm/ml
- ATI in supernatant (HIV-1 virus; Bardac 0.002%, J10): 16066 cpm/ml
- ATI in supernatant (HIV-1 virus; Bardac 0.002%, J13): 24902 cpm/ml
- ATI in supernatant (HIV-1 virus; Bardac 0.002%, J17): 77754 cpm/ml
- ATI in supernatant (HIV-1 virus; Bardac 0.002%, J20): 75554 cpm/ml
- ATI in supernatant (HIV-1 virus; Bardac 0.002%, J23): 101394 cpm/ml
- ATI in supernatant (HIV-1 virus; Bardac 0.002%, J27): 80560 cpm/ml
- ATI in supernatant (HIV-1 virus; Bardac 0.002%, J30): 64692 cpm/ml
- ATI in supernatant (HIV-1 virus; Bardac 0.004%, J3): 346 cpm/ml
- ATI in supernatant (HIV-1 virus; Bardac 0.004%, J6): 298 cpm/ml
- ATI in supernatant (HIV-1 virus; Bardac 0.004%, J10): 160 cpm/ml
- ATI in supernatant (HIV-1 virus; Bardac 0.004%, J13): 170 cpm/ml
- ATI in supernatant (HIV-1 virus; Bardac 0.004%, J17): 350 cpm/ml
- ATI in supernatant (HIV-1 virus; Bardac 0.004%, J20): 218 cpm/ml
- ATI in supernatant (HIV-1 virus; Bardac 0.004%, J23): 444 cpm/ml
- ATI in supernatant (HIV-1 virus; Bardac 0.004%, J27): 244 cpm/ml
- ATI in supernatant (HIV-1 virus; Bardac 0.004%, J30): 264 cpm/ml
- ATI in supernatant (HIV-1 virus; Bardac 0.006%, J3): 320 cpm/ml
- ATI in supernatant (HIV-1 virus; Bardac 0.006%, J6): 326 cpm/ml
- ATI in supernatant (HIV-1 virus; Bardac 0.006%, J10): 204 cpm/ml
- ATI in supernatant (HIV-1 virus; Bardac 0.006%, J13): 248 cpm/ml
- ATI in supernatant (HIV-1 virus; Bardac 0.006%, J17): 364 cpm/ml
- ATI in supernatant (HIV-1 virus; Bardac 0.006%, J20): 180 cpm/ml
- ATI in supernatant (HIV-1 virus; Bardac 0.006%, J23): 328 cpm/ml
- ATI in supernatant (HIV-1 virus; Bardac 0.006%, J27): 588 cpm/ml
- ATI in supernatant (HIV-1 virus; Bardac 0.006%, J30): 196 cpm/ml
- ATI in supernatant (HIV-1 virus; Bardac 0.01%, J3): 334 cpm/ml
- ATI in supernatant (HIV-1 virus; Bardac 0.01%, J6): 222 cpm/ml
- ATI in supernatant (HIV-1 virus; Bardac 0.01%, J10): 1768 cpm/ml
- ATI in supernatant (HIV-1 virus; Bardac 0.01%, J13): 1592 cpm/ml
- ATI in supernatant (HIV-1 virus; Bardac 0.01%, J17): 190 cpm/ml
- ATI in supernatant (HIV-1 virus; Bardac 0.01%, J20): 390 cpm/ml
- ATI in supernatant (HIV-1 virus; Bardac 0.01%, J23): 1328 cpm/ml
- ATI in supernatant (HIV-1 virus; Bardac 0.01%, J27): 780 cpm/ml
- ATI in supernatant (HIV-1 virus; Bardac 0.01%, J30): 1000 cpm/ml
- concentration of active substance inhibiting growth [2]: 0.0001%
- dilution of the 0.1% solution inhibiting growth [2]: 0.1%
- growth [2, 3]: +
- growth [2, 4]: +
- growth [2, 5]: +
- growth [2, 6]: +
- growth ([2]; 0.0125% vol/vol, inactivator A): +
- growth ([2]; 0.0125% vol/vol, inactivator B): +
- growth ([2]; 0.0125% vol/vol, inactivator C): +
- growth [2, 7]: +
- growth ([2]; 0.025% vol/vol, inactivator A): +
- growth ([2]; 0.025% vol/vol, inactivator B): +
- growth ([2]; 0.025% vol/vol, inactivator C): +
- growth ([2]; 0.025% vol/vol, no inactivator): +
- growth ([2]; 0.05% vol/vol, inactivator A): +
- growth ([2]; 0.05% vol/vol, inactivator B): +
- growth ([2]; 0.05% vol/vol, inactivator C): +
- growth ([2]; 0.05% vol/vol, no inactivator): +
- growth ([2]; 0.1% vol/vol, inactivator A): +
- growth ([2]; 0.1% vol/vol, inactivator B): +
- growth ([2]; 0.1% vol/vol, inactivator C): +
- growth ([2]; 0.1% vol/vol, no inactivator): −
- growth ([2]; 0.5% vol/vol, inactivator A): +
- growth ([2]; 0.5% vol/vol, inactivator B): +
- growth ([2]; 0.5% vol/vol, inactivator C): +
- growth ([2]; 0.5% vol/vol, no inactivator): −
- growth ([2]; 1.0% vol/vol, inactivator A): +
- growth ([2]; 1.0% vol/vol, inactivator B): +
- growth ([2]; 1.0% vol/vol, inactivator C): +
- growth ([2]; 1.0% vol/vol, no inactivator): −

SMILES: [H]/N=C(\N/C(=N/[H])NCCCCCCNC(=N)NC(=N)Nc1ccc(Cl)cc1)Nc1ccc(Cl)cc1 [Chlorhexidine, chlorohexidine digluconate, reference compound]
- Concentration at which hemolysis is not observed ([1]; component of test compound Bardac 22 + Chlorohexidine Gluconate + Tergitol NP-9): 0.001%
- Concentration at which hemolysis is not observed ([1]; component of test compound Bardac 22 + Chlorohexidine Gluconate): 0.0125%
- ATI in supernatant (HIV-1 virus; Chlorhexidine 0.005%, J3): 360 cpm/ml
- ATI in supernatant (HIV-1 virus; Chlorhexidine 0.005%, J10): 580 cpm/ml
- ATI in supernatant (HIV-1 virus; Chlorhexidine 0.005%, J30): 720 cpm/ml
- ATI in supernatant (HIV-1 virus; Chlorhexidine 0.01%, J10): 200 cpm/ml
- ATI in supernatant (HIV-1 virus; Chlorhexidine 0.01%, J13): 250 cpm/ml
- ATI in supernatant (HIV-1 virus; Chlorhexidine 0.01%, J17): 230 cpm/ml
- ATI in supernatant (HIV-1 virus; Chlorhexidine 0.01%, J27): 420 cpm/ml
- concentration of active substance inhibiting growth [2]: 0.001%
- dilution of the 0.1% solution inhibiting growth [2]: 1%
- growth [2, 3]: +
- growth [2, 4]: +
- growth [2, 5]: +
- growth [2, 6]: +
- growth ([2]; 0.0125% vol/vol, inactivator A): +
- growth ([2]; 0.0125% vol/vol, inactivator B): +
- growth ([2]; 0.0125% vol/vol, inactivator C): +
- growth [2, 7]: +
- growth ([2]; 0.025% vol/vol, inactivator A): +
- growth ([2]; 0.025% vol/vol, inactivator B): +
- growth ([2]; 0.025% vol/vol, inactivator C): +
- growth ([2]; 0.025% vol/vol, no inactivator): +
- growth ([2]; 0.05% vol/vol, inactivator A): +
- growth ([2]; 0.05% vol/vol, inactivator B): +
- growth ([2]; 0.05% vol/vol, inactivator C): +
- growth ([2]; 0.05% vol/vol, no inactivator): +
- growth ([2]; 0.1% vol/vol, inactivator A): +
- growth ([2]; 0.1% vol/vol, inactivator B): +
- growth ([2]; 0.1% vol/vol, inactivator C): +
- growth ([2]; 0.1% vol/vol, no inactivator): +
- growth ([2]; 0.5% vol/vol, inactivator A): +
- growth ([2]; 0.5% vol/vol, inactivator B): +
- growth ([2]; 0.5% vol/vol, inactivator C): +
- growth ([2]; 0.5% vol/vol, no inactivator): +
- growth ([2]; 1.0% vol/vol, inactivator A): +
- growth ([2]; 1.0% vol/vol, inactivator B): +
- growth ([2]; 1.0% vol/vol, inactivator C): +
- growth ([2]; 1.0% vol/vol, no inactivator): −
